Assays:
[1] = Table 1; cited from earlier work
[2] = system: immune cells; settings: cited from earlier work; for in vitro effective concentration on immune cells: Table 1
[3] = system: DRGs, motor neurons, and Schwann cells; settings: 72 h; for Measures in vitro tolerated concentrations on PN cells: rat
Protocol: It is contemplated that delivery of immunosuppressive agents function within a favorable therapeutic window. PNs are comprised of three major nervous system cell types, motor neurons, sensory neurons, and Schwann cells. […] FIG. 1B illustrates data regarding the toxicity of tacrolimus to DRGs, motor neurons, and Schwann cells. FIG. 1C illustrates data regarding the toxicity of prednisolone to DRGs, motor neurons, and Schwann cells.
Cells (DRGs, motor neurons, and Schwann cells) were cultured for 72 hours in various concentration of the immunosuppressive drugs and viability was evaluated using the Alamar blue viability assay. ISV's were diluted into media using a maximum of 1% dimethylsulfoxide (DMSO).
FIG. 2B illustrates data regarding the viability of DRGs, motor neurons, and Schwann cells cultured in about 10 μM tracrolimus with differing concentrations of prednisolone.

## C[C@]12C=CC(=O)C=C1CC[C@@H]1[C@@H]2[C@@H](O)C[C@@]2(C)[C@H]1CC[C@]2(O)C(=O)CO [Prednisolone, prednisolone]
[1]
  Effective clinical plasma concentration: 277 nM
[2]
  in vitro effective concentration on immune cells: 240 nM
  effective dose for inhibiting activation and proliferation of immune cells: greater than 240 μM
[3]
  tolerated by the cells at doses up to: up to 200 μM
  Measures in vitro tolerated concentrations on PN cells: 200 µM

## C=CC[C@@H]1/C=C(\C)C[C@H](C)C[C@H](OC)[C@H]2O[C@@](O)(C(=O)C(=O)N3CCCC[C@H]3C(=O)O[C@H](/C(C)=C/[C@@H]3CC[C@@H](O)[C@H](OC)C3)[C@H](C)[C@@H](O)CC1=O)[C@H](C)C[C@@H]2OC [Tacrolimus, tacrolimus]
[1]
  Effective clinical plasma concentration: 21 nM
[2]
  in vitro effective concentration on immune cells: 0.5 to 1.0 nM
  effective dose for inhibiting activation and proliferation of immune cells: 50 to 100 µM
[3]
  tolerated by the cells at doses up to: 10 to 25 µM
  Measures in vitro tolerated concentrations on PN cells: 10 to 25 µM

— patent US20200139012A1, “METHODS AND MATERIALS FOR IMMUNOMODULATION OF TISSUE GRAFTS” (UNIVERSITY OF WYOMING, priority 2018, published 2020)
